# Measurements taken from patent publication US20240018154A1, “NEW INDAZOLE DERIVATIVES” (Hoffmann-La Roche Inc., priority 2020, published 2024).
# Where a name gives a salt, the structure may show the parent alone.
# Biological target: T1, EGFR LRCS (BaF3-LRCS cell line) (Homo sapiens, UniProt P00533, C797S/L858R)
# T1 construct: host or cells: BaF3 (BaF3-LRCS engineered line, kept under puromycin)
# Experiment: HTRF Phospho EGFR LRCS assay (cellular)
# Assay type: cell-based
# Conditions: BaF3-LRCS cells, 4 hours incubation with compound, Phospho-EGFR HTRF readout
# Procedure: HTRF Phospho EGFR LRCS Assay (Cellular)
# BaF3-LRCS cell line were obtained from Crownbio (San Diego, CA, USA). Cells were maintained at 37° C., 5% CO2 in RPMI ATCC (Gibco 31870)+2 mM Glutamine+0.5 μg/ml Puromycin supplemented with 10% fetal bovine serum (FBS) (Gibco).
# Cells are transferred as above to Greiner Bio-One, Nr. 784-08 micro-titerplate at 20000 cells/well in 12.5 μl of growth medium/well after the plates had been pre-filled with 12.5 nl of DMSO solutions of the to be tested compounds (in dose response) or DMSO only. After spinning the plates at 300×g for 30 seconds the cells were incubated for 4 hours at 37 C, 5% CO2, 95% humidity. The cells were lysed by adding to the compound mix 4 μl/well of the supplemented lysis buffer (Cis-bio, Phospho-EGFR HTRF kit, 64EG1PEH), followed by incubation for 30 min at room temperature with shaking (400 rpm). The plates were then frozen and stored overnight at −80° C. On the next day and after thawing the plates, 4 μl of a mixture of anti-Phospho-EGFR Cryptate and of anti-Phospho-EGFR-d2 antibody solutions prepared in the supplied detection buffer was added to each well. The lidded plates were then incubated for 4 h at room temperature before reading the fluorescence emission at 616 and 665 nm using an Envision reader (Perkin Elmer). Data was analyzed in similar fashion as above using the normalized ratio of the 665 to 616 signals multiplied by 10000.
# T1 sequence (P00533 25-1210 C797S/L858R): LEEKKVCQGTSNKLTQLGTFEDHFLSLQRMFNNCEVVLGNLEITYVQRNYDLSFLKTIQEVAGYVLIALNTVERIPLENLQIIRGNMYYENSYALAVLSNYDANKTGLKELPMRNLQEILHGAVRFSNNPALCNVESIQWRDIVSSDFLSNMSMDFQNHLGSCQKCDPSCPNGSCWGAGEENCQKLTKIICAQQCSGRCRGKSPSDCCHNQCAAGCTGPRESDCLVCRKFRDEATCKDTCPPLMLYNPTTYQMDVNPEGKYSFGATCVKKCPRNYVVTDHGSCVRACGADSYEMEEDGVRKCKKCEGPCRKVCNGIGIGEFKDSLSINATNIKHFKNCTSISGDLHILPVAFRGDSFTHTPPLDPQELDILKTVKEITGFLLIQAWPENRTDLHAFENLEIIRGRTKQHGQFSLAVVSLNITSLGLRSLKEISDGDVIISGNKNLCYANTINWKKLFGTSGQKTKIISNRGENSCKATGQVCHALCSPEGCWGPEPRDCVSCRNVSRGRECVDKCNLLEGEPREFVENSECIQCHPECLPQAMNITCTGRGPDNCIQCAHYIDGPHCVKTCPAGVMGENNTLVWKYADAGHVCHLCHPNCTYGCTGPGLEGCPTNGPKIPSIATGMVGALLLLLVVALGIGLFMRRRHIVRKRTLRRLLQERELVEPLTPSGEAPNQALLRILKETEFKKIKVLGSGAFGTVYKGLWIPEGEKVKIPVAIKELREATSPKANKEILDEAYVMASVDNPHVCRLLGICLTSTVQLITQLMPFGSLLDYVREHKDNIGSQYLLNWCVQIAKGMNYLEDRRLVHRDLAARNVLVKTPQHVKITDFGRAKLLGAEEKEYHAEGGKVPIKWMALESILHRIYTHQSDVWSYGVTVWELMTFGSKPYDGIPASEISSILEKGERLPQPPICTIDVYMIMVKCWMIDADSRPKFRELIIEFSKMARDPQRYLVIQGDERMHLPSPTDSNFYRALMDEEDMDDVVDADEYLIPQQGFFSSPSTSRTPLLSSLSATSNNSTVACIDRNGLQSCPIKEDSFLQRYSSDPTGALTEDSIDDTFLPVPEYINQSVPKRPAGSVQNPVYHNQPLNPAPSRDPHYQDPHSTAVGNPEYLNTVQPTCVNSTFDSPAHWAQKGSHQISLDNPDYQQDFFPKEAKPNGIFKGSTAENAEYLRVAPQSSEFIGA
row,Compound,IC50 [nM]
1,"CNCCc1ccc(-c2cc(C(F)F)c3cn(C(C(=O)Nc4nccs4)c4ncn5c4C[C@@H](F)C5)nc3c2C)cc1 (stereo partly drawn) [Example 3, 2-[4-(Difluoromethyl)-7-methyl-6-[4-[2-(methylamino)ethyl]phenyl]indazol-2-yl]-2-[(6R)-6-fluoro-6,7-dihydro-5H-pyrrolo[1,2-c]imidazol-1-yl]-N-thiazol-2-yl-acetamide Hydrochloride]",18
2,"Cc1c(-c2ccc(OCCN3CCC(CO)CC3)cc2)cc(C(F)F)c2cn(C(C(=O)Nc3nccs3)c3ncn4c3C[C@@H](F)C4)nc12 (stereo partly drawn) [Example 5, 2-[4-(Difluoromethyl)-6-[4-[2-[4-(hydroxymethyl)-1-piperidyl]ethoxy]phenyl]-7-methyl-indazol-2-yl]-2-[(6R)-6-fluoro-6,7-dihydro-5H-pyrrolo[1,2-c]imidazol-1-yl]-N-thiazol-2-yl-acetamide]",19
3,"Cc1c(-c2ccc(N3CCOCC3)cc2)cc(C(F)F)c2cn(C(C(=O)Nc3nccs3)c3ncn4c3CCC4)nc12 (centres unmarked) [Example 8, 2-[4-(Difluoromethyl)-7-methyl-6-(4-morpholinophenyl)indazol-2-yl]-2-(6,7-dihydro-5H-pyrrolo[1,2-c]imidazol-1-yl)-N-thiazol-2-yl-acetamide]",17
4,"Cc1c(-c2ccc(CCN3CCC(CO)CC3)cc2)cc(C(F)F)c2cn(C(C(=O)Nc3nccs3)c3ncn4c3C[C@@H](F)C4)nc12 (stereo partly drawn) [Example 9, 2-[4-(Difluoromethyl)-6-[4-[2-[4-(hydroxymethyl)-1-piperidyl]ethyl]phenyl]-7-methyl-indazol-2-yl]-2-[(6R)-6-fluoro-6,7-dihydro-5H-pyrrolo[1,2-c]imidazol-1-yl]-N-thiazol-2-yl-acetamide]",27
5,"Cc1c(-c2ccc(OCCN3CCC(O)CC3)cc2)cc(C(F)F)c2cn(C(C(=O)Nc3nccs3)c3ncn4c3C[C@@H](F)C4)nc12 (stereo partly drawn) [Example 10, 2-[4-(Difluoromethyl)-6-[4-[2-(4-hydroxy-1-piperidyl)ethoxy]phenyl]-7-methyl-indazol-2-yl]-2-[(6R)-6-fluoro-6,7-dihydro-5H-pyrrolo[1,2-c]imidazol-1-yl]-N-thiazol-2-yl-acetamide]",17
6,"Cc1c(-c2ccc(CN3CCC(C(C)O)CC3)cc2)cc(C(F)F)c2cn(C(C(=O)Nc3nccs3)c3ncn4c3C[C@@H](F)C4)nc12 (stereo partly drawn) [Example 12, 2-[4-(Difluoromethyl)-6-[4-[[4-(1-hydroxyethyl)-1-piperidyl]methyl]phenyl]-7-methyl-indazol-2-yl]-2-[(6R)-6-fluoro-6,7-dihydro-5H-pyrrolo[1,2-c]imidazol-1-yl]-N-thiazol-2-yl-acetamide]",18
7,"Cc1c(-c2ccc(N3CCN4CCC3C4)cc2)cc(C(F)F)c2cn(C(C(=O)Nc3nccs3)c3ncn4c3C[C@@H](F)C4)nc12 (stereo partly drawn) [Example 13, 2-[6-[4-(1,4-Diazabicyclo[3.2.1]octan-4-yl)phenyl]-4-(difluoromethyl)-7-methyl-indazol-2-yl]-2-[(6R)-6-fluoro-6,7-dihydro-5H-pyrrolo[1,2-c]imidazol-1-yl]-N-thiazol-2-yl-acetamide]",17
8,"Cc1c(-c2ccc(C3CC(CN4CCC(CO)CC4)C3)cc2)cc(C(F)F)c2cn(C(C(=O)Nc3nccs3)c3ncn4c3C[C@@H](F)C4)nc12 (stereo partly drawn) [Example 15, 2-[4-(Difluoromethyl)-6-[4-[3-[[4-(hydroxymethyl)-1-piperidyl]methyl]cyclobutyl]phenyl]-7-methyl-indazol-2-yl]-2-[(6R)-6-fluoro-6,7-dihydro-5H-pyrrolo[1,2-c]imidazol-1-yl]-N-thiazol-2-yl-acetamide]",24
9,"Cc1c(-c2ccc(N3CCC(S(C)(=O)=O)CC3)cc2)cc(C(F)F)c2cn(C(C(=O)Nc3nccs3)c3ncn4c3C[C@@H](F)C4)nc12 (stereo partly drawn) [Example 16, 2-[4-(Difluoromethyl)-7-methyl-6-[4-(4-methylsulfonyl-1-piperidyl)phenyl]indazol-2-yl]-2-[(6R)-6-fluoro-6,7-dihydro-5H-pyrrolo[1,2-c]imidazol-1-yl]-N-thiazol-2-yl-acetamide]",16
10,"Cc1c(-c2ccc(C3CC(CN4CCC(O)CC4)C3)cc2)cc(C(F)F)c2cn(C(C(=O)Nc3nccs3)c3ncn4c3C[C@@H](F)C4)nc12 (stereo partly drawn) [Example 17, 2-[4-(Difluoromethyl)-6-[4-[3-[(4-hydroxy-1-piperidyl)methyl]cyclobutyl]phenyl]-7-methyl-indazol-2-yl]-2-[(6R)-6-fluoro-6,7-dihydro-5H-pyrrolo[1,2-c]imidazol-1-yl]-N-thiazol-2-yl-acetamide]",30
11,"Cc1c(-c2ccc(OCCN3CCOCC3)cc2)cc(C(F)F)c2cn(C(C(=O)Nc3nccs3)c3ncn4c3C[C@@H](F)C4)nc12 (stereo partly drawn) [Example 18, 2-[4-(Difluoromethyl)-7-methyl-6-[4-(2-morpholinoethoxy)phenyl]indazol-2-yl]-2-[(6R)-6-fluoro-6,7-dihydro-5H-pyrrolo[1,2-c]imidazol-1-yl]-N-thiazol-2-yl-acetamide]",28
12,"Cc1c(-c2ccc(N3CC(CN4CCC(CO)CC4)C3)cc2)cc(C(F)F)c2cn(C(C(=O)Nc3nccs3)c3ncn4c3C[C@@H](F)C4)nc12 (stereo partly drawn) [Example 19, 2-(4-(Difluoromethyl)-6-(4-(3-((4-(hydroxymethyl)piperidin-1-yl)methyl)azetidin-1-yl)phenyl)-7-methyl-211-indazol-2-yl)-2-((R)-6-fluoro-6,7-dihydro-5H-pyrrolo[1,2-c]imidazol-1-yl)-N-(thiazol-2-yl)acetamide]",16

# Next, values leading:
row,IC50 [nM],Compound
1,15,"CCN1CC[C@@H](c2ccc(-c3cc(C(F)F)c4cn(C(C(=O)Nc5nccs5)c5ncn6c5C[C@@H](F)C6)nc4c3C)cc2)[C@H](F)C1 (single isomer, unassigned) [Example 2, 2-[4-(Difluoromethyl)-6-[4-[(3S,4S)-1-ethyl-3-fluoro-4-piperidyl]phenyl]-7-methyl-indazol-2-yl]-2-[(6R)-6-fluoro-6,7-dihydro-5H-pyrrolo[1,2-c]imidazol-1-yl]-N-thiazol-2-yl-acetamide or 2-[4-(Difluoromethyl)-6-[4-[(3R,4R)-1-ethyl-3-fluoro-4-piperidyl]phenyl]-7-methyl-indazol-2-yl]-2-[(6R)-6-fluoro-6,7-dihydro-5H-pyrrolo[1,2-c]imidazol-1-yl]-N-thiazol-2-yl-acetamide]"
2,8,"Cc1c(-c2ccc(N3CCOCC3)cc2)cc(C(F)F)c2cn(C(C(=O)Nc3nccs3)c3ncn4c3C[C@@H](F)C4)nc12 (stereo partly drawn) [Example 1, 2-[4-(Difluoromethyl)-7-methyl-6-(4-morpholinophenyl)indazol-2-yl]-2-[(6R)-6-fluoro-6,7-dihydro-5H-pyrrolo[1,2-c]imidazol-1-yl]-N-thiazol-2-yl-acetamide]"
3,11,"Cc1c(-c2ccc(CCN(C)C)cc2)cc(C(F)F)c2cn(C(C(=O)Nc3nccs3)c3ncn4c3C[C@@H](F)C4)nc12 (stereo partly drawn) [Example 4, 2-[4-(Difluoromethyl)-6-[4-[2-(dimethylamino)ethyl]phenyl]-7-methyl-indazol-2-yl]-2-[(6R)-6-fluoro-6,7-dihydro-5H-pyrrolo[1,2-c]imidazol-1-yl]-N-thiazol-2-yl-acetamide]"
4,16,"Cc1c(-c2ccc(CN3CCC(CO)CC3)cc2)cc(C(F)F)c2cn(C(C(=O)Nc3nccs3)c3ncn4c3C[C@@H](F)C4)nc12 (stereo partly drawn) [Example 6, 2-[4-(Difluoromethyl)-6-[4-[[4-(hydroxymethyl)-1-piperidyl]methyl]phenyl]-7-methyl-indazol-2-yl]-2-[(6R)-6-fluoro-6,7-dihydro-5H-pyrrolo[1,2-c]imidazol-1-yl]-N-thiazol-2-yl-acetamide]"
5,14,"Cc1c(-c2ccc(CN3CCC(O)CC3)cc2)cc(C(F)F)c2cn(C(C(=O)Nc3nccs3)c3ncn4c3C[C@@H](F)C4)nc12 (stereo partly drawn) [Example 7, 2-[4-(Difluoromethyl)-6-[4-[(4-hydroxy-1-piperidyl)methyl]phenyl]-7-methyl-indazol-2-yl]-2-[(6R)-6-fluoro-6,7-dihydro-5H-pyrrolo[1,2-c]imidazol-1-yl]-N-thiazol-2-yl-acetamide]"
6,10,"Cc1c(-c2ccc(N3CCC(O)CC3)cc2)cc(C(F)F)c2cn(C(C(=O)Nc3nccs3)c3ncn4c3C[C@@H](F)C4)nc12 (stereo partly drawn) [Example 11, 2-[4-(Difluoromethyl)-6-[4-(4-hydroxy-1-piperidyl)phenyl]-7-methyl-indazol-2-yl]-2-[(6R)-6-fluoro-6,7-dihydro-5H-pyrrolo[1,2-c]imidazol-1-yl]-N-thiazol-2-yl-acetamide]"
7,16,"Cc1c(-c2ccc(CCN3CCC(C(C)O)CC3)cc2)cc(C(F)F)c2cn(C(C(=O)Nc3nccs3)c3ncn4c3C[C@@H](F)C4)nc12 (stereo partly drawn) [Example 14, 2-[4-(Difluoromethyl)-6-[4-[2-[4-(1-hydroxyethyl)-1-piperidyl]ethyl]phenyl]-7-methyl-indazol-2-yl]-2-[(6R)-6-fluoro-6,7-dihydro-5H-pyrrolo[1,2-c]imidazol-1-yl]-N-thiazol-2-yl-acetamide]"
8,12,"Cc1c(-c2ccc(N3CCN(CCO)CC3)cc2)cc(C(F)F)c2cn(C(C(=O)Nc3nccs3)c3ncn4c3C[C@@H](F)C4)nc12 (stereo partly drawn) [Example 20, 2-[4-(Difluoromethyl)-6-[4-[4-(2-hydroxyethyl)piperazin-1-yl]phenyl]-7-methyl-indazol-2-yl]-2-[(6R)-6-fluoro-6,7-dihydro-5H-pyrrolo[1,2-c]imidazol-1-yl]-N-thiazol-2-yl-acetamide]"
